pEC50, pIC50: −log10 of the molar value. Like-named read-outs stand apart in the source and are kept apart here.
Tests used:
[1] = test system: CEM cells; assay: CEM cell assay: intrinsic toxicity of test compound in uninfected cells (MTT); type: cell-based
Description: (§1) The effectiveness of the compounds tested in Part A was also determined in a CEM cell assay. The HIV inhibition assay method of acutely infected cells is an automated tetrazolium based colorimetric assay essentially that reported by Pauwles et al, J. Virol. Methods 20, 309-321 (1988). Assays were performed in 96-well tissue culture plates. CEM cells, a CD4^+ cell line, were grown in RPMI-1640 medium (Gibco) supplemented with a 10% fetal-calf serum and were then treated with polybrene (2 μg/mL). An 80 μL volume of medium containing 1×10^4 cells was dispensed into each well of the tissue culture plate. To each well was added a 100 μL volume of test compound dissolved in tissue culture medium (or medium without test compound as a control) to achieve the desired final concentration and the cells were incubated at 37° C. For 1 hour. A frozen culture of HIV-1 was diluted in culture medium to a concentration of 5×10^4 TCID50 per mL (TCID50=the dose of virus that infects 50% of cells in tissue culture), and a 20 μL volume of the virus sample (containing 1000 TCID50 of virus) was added to wells containing test compound and to wells containing only medium (infected control cells). Several wells received culture medium without virus (uninfected control cells). Likewise, the intrinsic toxicity of the test compound was determined by adding medium without virus to several wells containing test compound. In summary, the tissue culture plates contained the following experiments:
(§2) In experiments 2 and 4, the final concentrations of test compounds were 1, 10, 100 and 500 μg/mL. Either azidothymidine (AZT) or dideoxyinosine (ddI) was included as a positive drug control. […] DMSO was added to all control wells at an appropriate concentration.
(§3) Following the addition of virus, cells were incubated at 37° C. in a humidified, 5% CO2 atmosphere for 7 days. Test compounds could be added on days 0, 2 and 5 if desired. On day 7, post-infection, the cells in each well were resuspended and a 100 μL sample of each cell suspension was removed for assay. A 20 μL volume of a 5 mg/mL solution of 3-(4,5-dimethylthiazol-2-yl)-2,5-diphenyltetrazolium bromide (MTT) was added to each 100 μL cell suspension, and the cells were incubated for 4 hours at […] in a 5% CO2 environment. […] To each sample was added 100 μL of 10% sodium dodecylsulfate in 0.01 N HCl to lyse the cells, and samples were incubated overnight. The absorbance at 590 nm was determined for each sample using a Molecular Devices microplate reader. Absorbance values for each set of wells is compared to assess viral control infection, uninfected control cell response as well as test compound by cytotoxicity and antiviral efficacy.
(§4) The calculated EC^50 (effective concentration 50%, i.e., the concentration at which the inhibitor compound reduces cytopathicity by 50%) and TD^50 (toxic dose 50%, i.e., the concentration at which the inhibitor compound reduces cellular viability by 50%) values for these compounds are also shown in Table 1.

[2] = molecular target: T1, HIV protease (Human immunodeficiency virus type 1 group M subtype B, UniProt P04585); assay: HIV protease enzyme assay (fluorogenic substrate 2-aminobenzoyl-Ile-Nle-Phe(p-NO2)-Gln-ArgNH2); type: biochemical; conditions: for inhibition at 10 µM: at a concentration of 10 micromolar
T1 construct: HIV protease is diluted in the assay buffer to a final enzyme concentration of 12.3 nanomolar, based on a molecular weight of 10,780
Description: The compounds of the present invention are effective HIV protease inhibitors. […] The calculated IC50 (inhibiting concentration 50%, i.e., the concentration at which the inhibitor compound reduces enzyme activity by 50%) values are shown in Table 1. The enzyme method is described below. The substrate is 2-aminobenzoyl-Ile-Nle-Phe(p-NO2)-Gln-ArgNH2. The positive control is MVT-101 (Miller, M. et al, Science, 246, 1149 (1989)] The assay conditions are as follows:
Assay buffer: 20 mM sodium phosphate, pH 6.4
The above described substrate is dissolved in DMSO, then diluted 10 fold in assay buffer. Final substrate concentration in the assay is 80 μM.
HIV protease is diluted in the assay buffer to a final enzyme concentration of 12.3 nanomolar, based on a molecular weight of 10,780.
The final concentration of DMSO is 14% and the final concentration of glycerol is 18%. The test compound is dissolved in DMSO and diluted in DMSO to 10× the test concentration; 10 μL of the enzyme preparation is added, the materials mixed and then the mixture is incubated at ambient temperature for 15 minutes. The enzyme reaction is initiated by the addition of 40 μL of substrate. The increase in fluorescence is monitored at 4 time points (0, 8, 16 and 24 minutes) at ambient temperature. Each assay is carried out in duplicate wells.

[3] = test system: HIV-1; assay: CEM cell assay: HIV inhibition in acutely infected cells (MTT colorimetric); type: cell-based; conditions: HIV-1 infected CEM cells, 7 days, concentration reducing cytopathicity by 50%, read-out: Antiviral Activity in Cell Culture (EC50)
Description: as §1, §2, §3, §4

[4] = CEM cell assay: intrinsic toxicity of test compound in uninfected cells (MTT); type: cell-based; conditions: human, uninfected CEM cells (CD4+ cell line); CEM cells without virus, 7 days, concentration reducing cellular viability by 50% (TD50)
Description: as §1, §2, §3, §4

[5] = substrate 80 μM, HIV protease 12.3 nanomolar, pH 6.4, ambient temperature, read-out: Enzyme Inhibition (IC50)
[6] = Human immunodeficiency virus 1, CCRF-CEM, 168 h

Row | Molecule | pIC50 [2, 5] | inhibition at 10 µM [2] [%] | IC50 at 7 days [4] [µM] | pEC50 [3, 6] | other results
1 | COc1ccc(COC(=O)NCC(C)C(=O)NC(Cc2ccccc2)C(O)CN2CC3CCCCC3CC2C(=O)NC(C)(C)C)cc1 (stereo not drawn) [Example 4, carbamic acid, [3-[[3-[3-[[(1,1-dimethylethyl)-amino]carbonyl]octahydro-2(1H)-isoquinolinyl]-2-hydroxy-1-(phenyl-methyl)propyl]amino]-2-methyl-3-oxopropyl]-,(4-methoxyphenyl)methylester,[3S-[2[1R*(S*),2S*], 3α,4aβ,8aβ]]] | 8.15 | – | – | – | pIC50 [1]: 4.24; pEC50 [3]: 7.38
2 | C[C@H](CS(C)(=O)=O)C(=O)N[C@@H](Cc1ccccc1)[C@H](O)CN1C[C@H]2CCCC[C@H]2C[C@H]1C(=O)NC(C)(C)C (relative stereo) [Example 6, 3-Isoquinolinecarboxamide, N-(1,1-dimethylethyl)decahydro-2-[2-hydroxy-3-[[2-methyl-3-(methylsulfonyl)-1-oxopropyl]amino]-4-phenylbutyl]-, [3S-[2[2S*,3R*(R*)], 3α,4aβ,8aβ]]] | – | 3 to 100 | – | – | –
3 | C[C@@H](C(=O)N[C@@H](Cc1ccccc1)[C@H](O)CN1C[C@H]2CCCC[C@H]2C[C@H]1C(=O)NC(C)(C)C)C(C)(C)C(N)=O [Example 12, Butanamide, 4-[[3-[3-[[(1,1-dimethylethyl)-amino]carbonyl]octahydro-2 (1H)-isoquinolinyl]-2-hydroxy-1-(phenylmethyl)propyl]amino]-2,2,3-trimethyl-4-oxo-, [3S-[2[1R*(S*),2S*], 3α, 4aβ, 8 aβ]]] | – | 3 to 100 | – | – | –
4 | CC(C)(C)NC(=O)[C@@H]1C[C@@H]2CCCC[C@@H]2CN1C[C@@H](O)[C@H](Cc1ccccc1)NC(=O)C[C@H](NC(=O)c1ccc2ccccc2n1)C(N)=O (relative stereo) [Example 10, butanediamide, N^4-[3-[3-[[(1,1-dimethylethyl)-amino]carbonyl]octahydro-2(1H)-isoquinolinyl]-2-hydroxy-1-(phenyl-methyl)propyl]-2-[(2-quinolinylcarbonyl)amino]-, [3S[2[1R*(R*),2S*], 3α,4aβ,8aβ]]] | – | 3 to 100 | 5 | 7.43 | pIC50 [2]: 8.05
5 | COc1ccc(COC(=O)NC[C@@H](C)C(=O)N[C@@H](Cc2ccccc2)[C@H](O)CN2C[C@H]3CCCC[C@H]3C[C@H]2C(=O)NC(C)(C)C)cc1 (relative stereo) [Example 4, carbamic acid, [3-[[3-[3-[[(1,1-dimethylethyl)-amino]carbonyl]octahydro-2(1H)-isoquinolinyl]-2-hydroxy-1-(phenyl-methyl)propyl]amino]-2-methyl-3-oxopropyl]-,(4-methoxyphenyl)methylester,[3S-[2[1R*(S*),2S*], 3α,4aβ,8aβ]]] | – | 3 to 100 | – | – | –
6 | C[C@@H](C(=O)N[C@@H](Cc1ccccc1)[C@H](O)CN1C[C@H]2CCCC[C@H]2C[C@H]1C(=O)NC(C)(C)C)C(C)(C)C(N)=O (relative stereo) [Example 12, Butanamide, 4-[[3-[3-[[(1,1-dimethylethyl)-amino]carbonyl]octahydro-2 (1H)-isoquinolinyl]-2-hydroxy-1-(phenylmethyl)propyl]amino]-2,2,3-trimethyl-4-oxo-, [3S-[2[1R*(S*),2S*], 3α, 4aβ, 8 aβ]]] | 8.05 | – | 59 | 7.01 | –
7 | 3-Isoquinolinecarboxamide, N-(1,1-dimethylethyl)decahydro-2-[2-hydroxy-3-[[2-methyl-3-(methylsulfonyl)-1-oxopropyl]amino]-4-phenylbutyl]-, [3S-[2[2S*,3R*(R*)], 3α,4aβ,8aβ]] [Example 6] | 8.70 | – | – | – | pIC50 ([1]; CEM cells without virus, 7 days, concentration reducing cellular viability by 50% (TD50), read-out: Cell Toxicity (IC50)): 5.70; pEC50 [3]: 7.28
8 | C[C@@H](C(=O)N[C@@H](Cc1ccccc1)[C@H](O)CN1C[C@H]2CCCC[C@H]2C[C@H]1C(=O)NC(C)(C)C)C(C)(C)C(=O)O [Example 12C, butanoic acid, 4-[[3-[3-[[(1,1-dimethylethyl)amino]carbonyl]octahydro-2(1H)-isoquinolinyl]-2-hydroxy-1-(phenylmethyl)propyl]amino]-2,2,3-trimethyl-4-oxo-, [3S-[2[1R*(S*),2S*], 3α,4aβ, 8aβ]]-] | – | 3 to 100 | – | – | –
9 | C[C@@H](C(=O)N[C@@H](Cc1ccccc1)[C@H](O)CN1C[C@H]2CCCC[C@H]2C[C@H]1C(=O)NC(C)(C)C)C(C)(C)C(=O)O (relative stereo) [Example 12C, butanoic acid, 4-[[3-[3-[[(1,1-dimethylethyl)amino]carbonyl]octahydro-2(1H)-isoquinolinyl]-2-hydroxy-1-(phenylmethyl)propyl]amino]-2,2,3-trimethyl-4-oxo-, [3S-[2[1R*(S*),2S*], 3α,4aβ, 8aβ]]-] | 7.64 | – | 50 | 6.74 | –
